The values below come from patent publication US6372723B1, “Compositions and methods for preventing restenosis following revascularization procedures” (Discovery Therapeutics, Inc., priority 1997, dated 2002).

Assay [1] deals with rabbits with focal femoral atherosclerosis (arterial stenosis). In words: Restenosis after balloon angioplasty in rabbits with focal femoral atherosclerosis. The class given is in vivo. The conditions noted are these: rabbit. As for the experimental part: Focal femoral atherosclerosis is induced in rabbits by air desiccation endothelial injury followed by a 2% cholesterol, 6% peanut oil diet for one month. The degree of arterial stenosis is assessed angiographically. At this time, balloon angioplasty is performed using a 2.5 mm balloon, which is inserted into the region of stenosis and inflated with three 60-second, 10-atmosphere inflations 60 seconds apart. This procedure is similar to that used in humans for clearing coronary blood vessels. Rabbits receive an intravenous infusion of 2-cyclohexylmethylenehydrazinoadenosine (0.6 μg/kg/min) or vehicle starting 10 minutes before the angioplasty procedure and continuing for 1 day following angioplasty. Angiograms are performed before and after angioplasty and at 28 days after angioplasty. These angiograms are analyzed quantitatively for decrease of arterial stenosis. Rabbits are sacrificed 28 days following angioplasty and arteries are analyzed histopathologically and morphometrically.
Example 1 is followed, with the exception that one rabbit group is treated with an effective amount of a combination of (±)-N^6-endonorboman-2-yl-9-methyladenine (0.25 mg/kg/min) and 5′-N-ethylcarboxamidoadenosine (6 μg/kg/min) instead of 2-cyclohexylmethylenehydrazinoadenosine. […]

Assay [2] has as its system platelets and neutrophils. Put plainly: In vivo activation of neutrophils and platelets after balloon angioplasty, flow cytometry of coronary sinus blood. Details: species or system human. To be noted: humans, i.v. infusion 0.6 μg/kg/min from 10 min before to 1 day after angioplasty. The procedure:
Humans are subjected to balloon angioplasty, and receive either an intravenous infusion of 2-cyclohexylmethylenehydrazinoadenosine (0.6 μg/kg/min) or vehicle starting 10 minutes before the angioplasty procedure and continuing for 1 day following angioplasty. In vivo activation of neutrophils and platelets are measured by taking a blood sample from the coronary sinus and measuring the expression of surface adhesion molecules on platelets and neutrophils by flow cytometry.

For assay [3], the system named is humans with stenotic arteries (restenosis). In words: Incidence of restenosis by angiography six months after balloon angioplasty. The conditions noted are these: i.v. infusion 0.6 μg/kg/min from 10 min before to 1 day after angioplasty. The class given is in vivo, human. As for the experimental part:
Humans afflicted with impaired blood flow due to stenotic arteries are subjected to balloon angioplasty, and receive either an intravenous infusion of 2-cyclohexylmethylenehydrazinoadenosine (0.6 μg/kg/min) or vehicle starting 10 minutes before the angioplasty procedure and continuing for 1 day following angioplasty. Six months following the balloon angioplasty procedure, angiography is performed on these subjects to examine the blood vessel subjected to the angioplasty.

Take `Cn1cnc2c(N[C@@H]3C[C@@H]4CC[C@H]3C4)ncnc21` (racemic) [(±)-N^6-endonorbornan-2-yl-9-methyladenine, reference compound]: the “degree of arterial stenosis vs vehicle group” value in assay [1] (A1 antagonist alone 0.25 μg/kg/min, as Example 1) is “significantly less”.

For `Nc1nc(NN=CC2CCCCC2)nc2c1ncn2[C@@H]1O[C@H](CO)[C@@H](O)[C@H]1O` [2-cyclohexylmethylenehydrazinoadenosine], in assay [2], the “neutrophils that express surface adhesion molecules vs vehicle group” value was “significantly fewer” and the “platelets that express surface adhesion molecules vs vehicle group” value is reported as “significantly fewer”. Further, the “incidence of restenosis vs vehicle group” value in assay [3] was “significantly less”. For the same compound, the “degree of arterial stenosis vs vehicle group” value in assay [1] (i.v. infusion 0.6 μg/kg/min from 10 min before to 1 day after angioplasty, assessed 28 days after angioplasty) is “significantly less”.
